Assays:
Assay type in all cases: cell-based, human
[1] = test system: AFXζ-induced PEPCK p-SEAP activity; test: PEPCK p-SEAP reporter assay in HepG2 cells transfected with AFXζ
Method: (§1) FIG. 4. Effect of insulin on the transcriptional activity of AFXζ. HepG2 cells were transiently transfected with pcDNA6/His-AFXζ and PEPCK p-SEAP (A) or PEPCK IRS-SEAP (B). Twenty-four hours after transfection, cells were treated with insulin at the indicated concentration in fresh media and incubated for another 15-18 hours. SEAP and β-galactosidase activities were measured. The relative activation levels were standardized by comparison to the reporter activity from transfected cells without insulin treatment (A) or untreated cells transfected with the reporter alone (B). All values represent the means±S.D. of 3 independent experiments.
FIG. 5. Effect of bpV (peroxovanadate) and PKB on the transcriptional activity of AFXζ. A. HepG2 cells were transiently transfected with PEPCK p-SEAP and pcDNA6/His-AFXζ. Twenty-four hours after transfection, cells were treated with bpV at the indicated concentration in fresh media and were incubated for another 15-18 hours. The relative activation level was standardized by comparison to the reporter activity from transfection without bpV treatment. B. HepG2 cells were transiently cotransfected with the reporter constructs and pcDNA6/His-AFXζ with (filled bars) or without (open bars) the plasmid encoding myr-Akt1, which constitutively expresses active PKB. Forty-eight hours after transfection, SEAP and β-galactosidase activities were measured. The relative activation levels were standardized comparing with the activity from corresponding transfection with reporter alone. All values represent the means±S.D. of 3 independent experiments.
(§2) FIG. 6. Effect of AICAR on the transcriptional activity of AFXζ. A. HepG2 cells were transiently transfected with AFXζ and PEPCK p-SEAP (A) or PEPCK IRS-SEAP (B). Twenty-four hours after transfection, cells were treated with AICAR at indicated concentration in fresh media and incubated for another 15-18 hours. SEAP and β-galactosidase activities were measured. The relative activation levels were standardized by comparison to the activity from cells without AICAR treatment (A) or untreated cells transfected with the reporter alone (B). All values represent the means±S.D. of 3 independent experiments.
Double-stranded DNA fragments containing each of the IRS elements from the promoters of PEPCK, IGFBP- 1 and G6Pase were cloned into the Nhe I/Bgl II site of pSEAP2-promoter vector (Clontech). Dissected fragments of the PEPCK and IGFBP-1 IRS elements, referred as PEPCK-a, PEPCK-b and IGFBP-1a, IGFBP-1b, respectively, were cloned into the same site of pSEAP2-promoter. In addition, a 501 bp fragment corresponding to the human PEPCK 5′ regulatory sequence (−458 to +43 relative to the transcription start site, abbreviated as PEPCK p) was cloned into the Bgl II/EcoR I site of the same vector. […]

[2] = test system: AFXζ-induced PEPCK IRS-SEAP activity; test: PEPCK IRS-SEAP reporter assay in HepG2 cells transfected with AFXζ
Method: as §1, §2
Double-stranded DNA fragments containing each of the IRS elements from the promoters of PEPCK, IGFBP- 1 and G6Pase were cloned into the Nhe I/Bgl II site of pSEAP2-promoter vector (Clontech). Dissected fragments of the PEPCK and IGFBP-1 IRS elements, referred as PEPCK-a, PEPCK-b and IGFBP-1a, IGFBP-1b, respectively, were cloned into the same site of pSEAP2-promoter. […]
The human hepatoma cell line HepG2 was cultured in Dulbecco's Modified Eagle's Medium (DMEM) with 10% Fetal Bovine Serum (FBS, Life Technologies). […] Secreted alkaline phosphatase (SEAP) and β-galactosidase activities were measured using Phospha-Light and Galacto-Star systems (Tropix Inc., Bedford, Mass.), respectively.

[3] = test system: HepG2 cells
Method: The human hepatoma cell line HepG2 was cultured in Dulbecco's Modified Eagle's Medium (DMEM) with 10% Fetal Bovine Serum (FBS, Life Technologies). Transient transfection experiments were performed in DMEM supplemented with 10% dialyzed FBS in 24-well plates. A DNA construct (0.2 μg unless otherwise specified) corresponding to IRS-SEAP, pcDNA6/His-AFXα or -AFXζ and CMV-β was added. Each set of reporter assay includes a transfection in which no AFX expression construct was added. In experiments where PKB effect was tested, 0.2 μg myr-Aktl in pUSEamp(+) (Upstate Biotechnology, Lake Placid, N.Y.), which constitutively expresses activated PKB, was included. Lipofectamine 2000 reagent (Life Technologies) was used for DNA transfection following the manufacturer's instruction. For experiment in which the cells were treated with soluble agents, the medium was changed 24 hours after the transfection. Cells were then treated with appropriate concentrations of bpV [potassium bisperoxo(1,1 0-phenanthroline) oxovanadate(V), Alexis Biochemicals, San Diego, Calif.], porcine insulin, or AICAR (5-aminoimidazole-4-carboxamide-1-β-D-ribofuranoside, Sigma, St. Louis, Mo.) in fresh media for another 15-18 hours. Secreted alkaline phosphatase (SEAP) and β-galactosidase activities were measured using Phospha-Light and Galacto-Star systems (Tropix Inc., Bedford, Mass.), respectively.

Q: With NC(=O)c1ncn([C@@H]2O[C@H](CO)[C@@H](O)[C@H]2O)c1N [AICAR, 5-aminoimidazole-4-carboxamide-1-β-D-ribofuranoside] as the molecule, how does the “transcriptional activity of AFXζ on the PEPCK promoter, % of untreated cells” value ([1]; HepG2, 200 μM AICAR) read?
A: Its value is 48%.

Q: What about the “induced PEPCK IRS-SEAP activity, % of the stimulation ascribed to transfected AFXζ” value ([2]; HepG2, 200 μM AICAR) of the same molecule?
A: The value was 20%.

Q: For O.O.O.OO.OO.[K+].[OH-].[V].c1cnc2c(c1)ccc1cccnc12 [bpV, potassium bisperoxo(1,1 0-phenanthroline) oxovanadate(V)], which “AFXζ-induced PEPCK p-SEAP reporter activity” value ([1]; HepG2, 5 μM bpV) is on record?
A: The value was “below the basal level”.

Q: And the “lowest concentration repressing AFXζ-induced PEPCK p-SEAP reporter gene activity” value ([1]; HepG2, 15-18 hours)?
A: The value was 0.5 µM.

Q: What about the “concentration with toxicity in HepG2 cells (reduction of control galactosidase activity)” value [3] of the same molecule?
A: Its value is “above 5 μM”.

Q: Which results are given for “insulin: porcine insulin used to treat transfected HepG2 cells”?
A: induced PEPCK p-SEAP activity compared with the untreated cells ([1]; HepG2, increasing concentrations of insulin, 15-18 hours): 50%; AFXζ-induced PEPCK IRS-SEAP reporter activity ([2]; HepG2, 200 nM insulin): to the basal level; PEPCK IRS-SEAP activity ([2]; HepG2 cells in which exogenous AFXζ had not been introduced): repressed

Source: patent publication US20030096957A1, “AFX (zeta) transcription factor splice form” (priority 2001, published 2003)
